Measurements: US6503943B1, “Platinum complex, its preparation and therapeutic application” (priority 1998, dated 2003)
“And” between values parts separate entries of the source, which are not always exact repeats. Equal entries are not always repeated.

Columns and labels:
leucaemia L1210 [1] = test: Antitumor effect at animals with leucaemia L1210, single administration (Example 4); format: in vivo, mice DBA2; conditions: mouse, in vivo
leucaemia L1210 [2] = test: Antitumor effect at animals with leucaemia L1210, intermitent administration 3x (Example 5); format: in vivo, mice DBA2; conditions: for Survival (in % of control) / Survival time, Geom. mean: 1st, 5th and 9th day
leucaemia L1210 [3] = test: Antitumor effect at animals with leucaemia L1210, continual versus intermitent regimen (Example 6); format: in vivo, mice DBA2
leucaemia L1210 [4] = test: Antitumor effect at animals with leucaemia L1210, continual regimen (Example 7); format: in vivo, mice DBA2; conditions: for Survival (in % of control) / Survival time, Geom. mean: 1th-9th day
Gardner lymphosarcoma = test: Antitumor effect at animals with solid form of Gardner lymphosarcoma (Example 8); format: in vivo, mice C3H; conditions: 5th day, tumors weighed 14th day
[5] = system: mammal adenocarcinoma MC2111; test: Antitumor effect at animals with solid form of mammal adenocarcinoma MC2111 (Example 9); format: in vivo, mice DBA1; conditions: for Tumor mass (%) of control / Tumor mass, Arithm. mean: 5th-13 day, tumor size 14th day, mass from regression
[6] = system: ascitic form of Ehrlich tumor (ATE); test: Antitumor effect at animals with ascitic form of Ehrlich tumor (ATE) (Example 10); format: in vivo, mice ICR; conditions: for Survival (in % of control) / Survival time, Geom. mean / Tumor mass (%) of control / Tumor mass, Arithm. mean: 1st-9th day; for Tumor mass (%) of control / Tumor mass, Arithm. mean: dissection 10th day
[7] = system: ascitic form of Ehrlich tumor (ATE); test: Antitumor effect at animals with ascitic form of Ehrlich tumor (ATE) (Example 11);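 on all read-outs here: half of each dose group killed on day 10, tumor mass taken as animal mass lost on ascites aspiration, ascitocrit by microhematocrit centrifuge, rest followed daily for survival versus reference group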; conditions: for Survival (in % of control) / Survival time, Geom. mean / Total ascitocrit (%) of control / Total ascitocrit (mass of cell fraction of a tumor), Arithm. mean / Tumor mass (%) of control / Tumor mass, Arithm. mean: 1th-9th day; for Total ascitocrit (%) of control / Total ascitocrit (mass of cell fraction of a tumor), Arithm. mean / Tumor mass (%) of control / Tumor mass, Arithm. mean: dissection 10th day
Protocol: After termination of application, one half of animals in each dosage group was destroyed at 10th day after inoculation in ether narcosis, the ascits were sucked out after laparotomy and the mass of a tumor at each of the animals was determined from the difference of mass before and after sucking out the ascit. Ascitocrit in ascitic liquor of single animals was determined on microhematocrit centrifuge in heparinized capillary tubes of 75 mm length. The value of “total ascitocrit”corresponding to a mass of cells in ascitic liquor has been determined from percentage of ascitocrit and mass of the tumor. Remaining animals were left for monitoring the survival time. In these animals, the survival time was monitored on daily basis. The dependence of the survival time value on the applied dose was evaluated in comparison with the reference group.
The single estimated time points as biological responses were evaluated by a test of equivalence of two mean values (Student's t-test). Geometric mean was calculated from single values of survival time, arithmetic means were calculated from single values of tumor mass and total ascitocrit. Difference between mean values was evaluated by a test of equivalence of two mean values (Student's t-test) under presumption of normal probability distribution of mass values as well as of total ascitocrit values and of logarithmic/normal distribution of temporal values, all under presumption of possible unknown disseminations. Those diferences in mean values, whose values of a test criterium exceeded the critical value at the 5% and 1% significance level were evaluated as statistically significant and highly statistically significant, respectively.
The optimum dosage has been calculated from values of survival time according to the proportional risk model of Cox (Carter et al., 1982). Parameters of Weinbull distribution and logarithmic transformation of introductory data were used for estimation of a basic and modified survival function from experimental data.

[8] = 9 mg/kg/day p.o. 3x, 1,5,9th day (lowest dose group)
[9] = 12 mg/kg/day p.o. 9x, 1-9th day
[10] = 18 mg/kg/day p.o. 3x, 1,5,9th day
[11] = 36 mg/kg/day p.o. 3x, 1,5,9th day

CC(=O)[O-].CC(=O)[O-].N.NC12CC3CC(CC(C3)C1)C2.[Cl-].[Cl-].[Pt+4] [LA-12, Af-bis (Acetato)-b-(1-Adamantylamine)-c-ammin-de-dichloroplatinum (IV) Complex]
Increase of mean value of survival time in comparison with the untreated control group (leucaemia L1210 [1]): 55% | Survival (in % of control) (leucaemia L1210 [2]; 2 mg/kg/day p.o. 3x): >121% | Survival time, Geom. mean (leucaemia L1210 [2]; 2 mg/kg/day p.o. 3x): 19.0 days | Survival (in % of control) (leucaemia L1210 [2]; 4 mg/kg/day p.o. 3x): 147% | Survival time, Geom. mean (leucaemia L1210 [2]; 4 mg/kg/day p.o. 3x): 23.0 days | Survival (in % of control) (leucaemia L1210 [2]; 4 mg/kg/day p.o. 3x, listed as LA-] 2): 148% | Survival (in % of control) (leucaemia L1210 [2]; 8 mg/kg/day p.o. 3x): 118% | Survival time, Geom. mean (leucaemia L1210 [2]; 8 mg/kg/day p.o. 3x): 18.5 days | Optimum dose as calculated according to Carter (leucaemia L1210 [2]; intermitent oral administration 3x): 4.55 mg/kg/day p.o.×3 | Survival (in % of control) (leucaemia L1210 [3]; 3 mg/kg/day p.o. 9x, 1-9th day): 96% | Survival time, Geom. mean (leucaemia L1210 [3]; 3 mg/kg/day p.o. 9x, 1-9th day): 11.1 days | Increase of survival time value in comparison with the control group (leucaemia L1210 [3]; 6 mg/kg p.o.×9): 130% | Survival (in % of control) (leucaemia L1210 [3]; 6 mg/kg/day p.o. 9x, 1-9th day): 230% | Survival time, Geom. mean (leucaemia L1210 [3]; 6 mg/kg/day p.o. 9x, 1-9th day): 16.6 days | Survival (in % of control) (leucaemia L1210 [3]; [8]): 115% | Survival time, Geom. mean (leucaemia L1210 [3]; [8]): 13.3 days | Survival (in % of control) (leucaemia L1210 [3]; [9]): 118% | Survival time, Geom. mean (leucaemia L1210 [3]; [9]): 13.6 days | Survival (in % of control) (leucaemia L1210 [3]; [10]): 158% | Survival time, Geom. mean (leucaemia L1210 [3]; [10]): 18.3 days | Survival (in % of control) (leucaemia L1210 [3]; [11]): 137% | Survival time, Geom. mean (leucaemia L1210 [3]; [11]): 15.9 days | Evaluation of antitumor effect (survival time versus control), in words (leucaemia L1210 [3]; LA-12 6 mg/kg p.o.×9, Platidiam 8 and 4 mg/kg s.c.×1, LA-2 any of the dosage groups): antitumor effective | Survival (in % of control) (leucaemia L1210 [4]; 3 mg/kg/day p.o. 9x): 198% | Survival time, Geom. mean (leucaemia L1210 [4]; 3 mg/kg/day p.o. 9x): 44.6 days | Survival (in % of control) (leucaemia L1210 [4]; 6 mg/kg/day p.o. 9x): 172% | Survival time, Geom. mean (leucaemia L1210 [4]; 6 mg/kg/day p.o. 9x): 38.8 days | Survival (in % of control) (leucaemia L1210 [4]; 12 mg/kg/day p.o. 9x): 210% | Survival time, Geom. mean (leucaemia L1210 [4]; 12 mg/kg/day p.o. 9x): 47.2 days | Evaluation of antitumor effect (survival time versus control), in words (leucaemia L1210 [4]; in the dosages used, p.o.×9): antitumor effective | Increase of survival time value in comparison with the control group (leucaemia L1210 [4]; in the dosages used, p.o.×9): 130% | Tumor mass (%) of control (Gardner lymphosarcoma; 2 mg/kg p.o. 1x): 80% | Tumor mass, Arithm. mean (Gardner lymphosarcoma; 2 mg/kg p.o. 1x): 5.02 g | Tumor mass (%) of control (Gardner lymphosarcoma; 8 mg/kg p.o. 1x): 88% | Tumor mass, Arithm. mean (Gardner lymphosarcoma; 8 mg/kg p.o. 1x): 5.46 g | Tumor mass (%) of control (Gardner lymphosarcoma; 32 mg/kg p.o. 1x): 77% | Tumor mass, Arithm. mean (Gardner lymphosarcoma; 32 mg/kg p.o. 1x): 4.80 g | Tumor mass (%) of control ([5]; 3 mg/kg/day p.o. 9x): 86% | Tumor mass, Arithm. mean ([5]; 3 mg/kg/day p.o. 9x): 4.02 g | Tumor mass (%) of control ([5]; 6 mg/kg/day p.o. 9x): 80% | Tumor mass, Arithm. mean ([5]; 6 mg/kg/day p.o. 9x): 3.73 g | Tumor mass (%) of control ([5]; 12 mg/kg/day p.o. 9x): 87% | Tumor mass, Arithm. mean ([5]; 12 mg/kg/day p.o. 9x): 4.05 g | Survival (in % of control) ([5]; mouse, in vivo): 116% and 117% | Survival time, Geom. mean ([5]; mouse, in vivo): 25.1 days and 25.3 days and 27.7 days | Evaluation of antitumor effect, in words ([5]; p.o.×9 12, 6, 3 mg/kg/day, Platidiam 8 and 4 mg/kg s.c. once): antitumor effective | Survival (in % of control) ([6]; 3 mg/kg/day p.o. 9x): 157% | Survival time, Geom. mean ([6]; 3 mg/kg/day p.o. 9x): 18.0 days | Tumor mass (%) of control ([6]; 3 mg/kg/day p.o. 9x): 104% | Tumor mass, Arithm. mean ([6]; 3 mg/kg/day p.o. 9x): 2.76 g | Survival (in % of control) ([6]; 6 mg/kg/day p.o. 9x): 219% | Survival time, Geom. mean ([6]; 6 mg/kg/day p.o. 9x): 25.1 days | Tumor mass (%) of control ([6]; 6 mg/kg/day p.o. 9x): 100% | Tumor mass, Arithm. mean ([6]; 6 mg/kg/day p.o. 9x): 2.66 g | Survival (in % of control) ([6]; 12 mg/kg/day p.o. 9x): 135% | Survival time, Geom. mean ([6]; 12 mg/kg/day p.o. 9x): 15.5 days | Tumor mass (%) of control ([6]; 12 mg/kg/day p.o. 9x): 84% | Tumor mass, Arithm. mean ([6]; 12 mg/kg/day p.o. 9x): 2.23 g | Significance of mean survival time increase in comparison with untreated control (p≦0.01), in words ([6]; Tab. 7-2): atatistically highly significant | Survival (in % of control) ([7]; 3 mg/kg/day p.o. 9x): 143% | Survival time, Geom. mean ([7]; 3 mg/kg/day p.o. 9x): 12.7 days | Total ascitocrit (%) of control ([7]; 3 mg/kg/day p.o. 9x): 100% | Total ascitocrit (mass of cell fraction of a tumor), Arithm. mean ([7]; 3 mg/kg/day p.o. 9x): 0.68 g | Tumor mass (%) of control ([7]; 3 mg/kg/day p.o. 9x): 110% | Tumor mass, Arithm. mean ([7]; 3 mg/kg/day p.o. 9x): 4.32 g | Survival (in % of control) ([7]; 6 mg/kg/day p.o. 9x): 153% | Survival time, Geom. mean ([7]; 6 mg/kg/day p.o. 9x): 13.6 days | Total ascitocrit (%) of control ([7]; 6 mg/kg/day p.o. 9x): 99% | Total ascitocrit (mass of cell fraction of a tumor), Arithm. mean ([7]; 6 mg/kg/day p.o. 9x): 0.68 g | Tumor mass (%) of control ([7]; 6 mg/kg/day p.o. 9x): 78% | Tumor mass, Arithm. mean ([7]; 6 mg/kg/day p.o. 9x): 3.07 g | Survival (in % of control) ([7]; 12 mg/kg/day p.o. 9x): 134% | Survival time, Geom. mean ([7]; 12 mg/kg/day p.o. 9x): 11.9 days | Total ascitocrit (%) of control ([7]; 12 mg/kg/day p.o. 9x): 64% | Total ascitocrit (mass of cell fraction of a tumor), Arithm. mean ([7]; 12 mg/kg/day p.o. 9x): 0.44 g | Tumor mass (%) of control ([7]; 12 mg/kg/day p.o. 9x): 47% | Tumor mass, Arithm. mean ([7]; 12 mg/kg/day p.o. 9x): 1.86 g | Evaluation of antitumor effect (survival time versus control), in words ([7]; p.o.×9, Platidiam 8 and 4 mg/kg s.c.×1, Tab. 8.1): didnot increase the survival time statistically significant
